{"source": "ChEMBL document CHEMBL1150708", "about": "“Isolation and bioactivity of new tanshinones” (1987)", "assay_type_in_all_cases": "functional", "key": {"[1]": {"test": "Antiplatelet activity against platelet assessed as inhibition of ADP-induced platelet aggregation at 50 ug/ml by turbidimetry"}, "[2]": {"test": "Antiplatelet activity against platelet assessed as inhibition of collagen-induced platelet aggregation at 50 ug/ml by turbidimetry"}, "[3]": {"test": "Antiplatelet activity against platelet assessed as inhibition of ADP-induced platelet aggregation at 10 ug/ml by turbidimetry"}, "[4]": {"test": "Antiplatelet activity against platelet assessed as inhibition of collagen-induced platelet aggregation at 10 ug/ml by turbidimetry"}, "[5]": {"test": "Antiplatelet activity against platelet assessed as inhibition of collagen-induced platelet aggregation at 5 ug/ml by turbidimetry"}}}
{"smiles": "CC(=O)Oc1ccccc1C(=O)O", "note": "[ASPIRIN]", "values": [{"measurement": "inhibition at 50 µg/mL", "setting": "[1]", "value": 74, "unit": "%"}, {"measurement": "inhibition at 50 µg/mL", "setting": "[2]", "value": 72, "unit": "%"}]}
{"smiles": "Cc1coc2c1C(=O)c1ccc3c(c1C2=O)CCCC3(C)CO", "note": "(stereo not given) [ISOTANSHINONE IIB]", "values": [{"measurement": "inhibition at 10 µg/mL", "setting": "[3]", "value": 40, "unit": "%"}, {"measurement": "inhibition at 10 µg/mL", "setting": "[4]", "value": 81, "unit": "%"}, {"measurement": "inhibition at 5 µg/mL", "setting": "[5]", "value": 4, "unit": "%"}]}
